Usually melting point stands for the temperature, or range, at which the solid turns liquid. The molecule `O=Cc1c(O)cccc1OCC(=O)N(C1CCOCC1)C1CCOCC1` [GBT001203, 2-(2-formyl-3-hydroxyphenoxy)-N,N-bis(tetrahydro-2H-pyran-4-yl)acetamide] returned a melting point of 272 to 275 °C.

Source of the values: US20180186807A1, “COMPOUNDS AND USES THEREOF FOR THE MODULATION OF HEMOGLOBIN” (Global Blood Therapeutics, Inc., priority 2013, published 2018).
